Laboratory results from ChEMBL document CHEMBL1909046, “DrugMatrix in vitro pharmacology data”.
*1 amine or outer side, *2 acyl side, *3 side chain or, on linkers, in order; H or OH if unused. Where a SMILES comes first, the peptide text is derived from it. Bridges are numbered along the chain shown (N, C = ends). Roman numbers before positions name the chains, in order. [ ]: non-standard residue; d: D form. Actinocin(1to9) = Cc1c2oc3c(C)ccc(C(=O)[*:2])c3nc-2c(C(=O)[*:1])c(N)c1=O; NMeV = CN[C@H](C(=O)O)C(C)C; Sar = CNCC(=O)O

How the values were obtained:
[1] = target: Beta-3 adrenergic receptor (Homo sapiens, UniProt P13945); assay: DRUGMATRIX: Adrenergic beta3 radioligand binding (ligand: [125I] Cyanopindolol); format: cell membranes, HEK293, Membrane; conditions: Not Active = under 50% inhibition at 10 µM
[2] = target: Sodium-dependent noradrenaline transporter (Homo sapiens, UniProt P23975); assay: DRUGMATRIX: Norepinephrine Transporter radioligand binding (ligand: [125I] RTI-55); format: cell membranes, MDCK, Membrane; conditions: Not Active = under 50% inhibition at 10 µM
[3] = DRUGMATRIX: Atrial Natriuretic Factor (ANF) radioligand binding (ligand: [125I] ANF (rat)); format: cell membranes, Cavia porcellus, Dunkin-Hartley, Adrenal gland, Membrane; conditions: Not Active = under 50% inhibition at 10 µM
[4] = DRUGMATRIX: Glutamate, AMPA radioligand binding (ligand: [3H] AMPA); format: cell membranes, Rattus norvegicus, Wistar, Cerebral cortex, Membrane; conditions: Not Active = under 50% inhibition at 10 µM
[5] = DRUGMATRIX: Glutamate, NMDA, Phencyclidine radioligand binding (ligand: [3H] TCP); format: cell membranes, Rattus norvegicus, Wistar, Cerebral cortex, Membrane; conditions: Not Active = under 50% inhibition at 10 µM
[6] = target: T1, Angiotensin-converting enzyme (Oryctolagus cuniculus, UniProt P12822); format: tissue-based, Lung;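 also: enzymatic inhibition of angiotensin-converting enzyme measured with FAPGG as the substrate; in other assays of this panel Not Active means under 50% inhibition at 10 µM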
T1 sequence (P12822 whole entry): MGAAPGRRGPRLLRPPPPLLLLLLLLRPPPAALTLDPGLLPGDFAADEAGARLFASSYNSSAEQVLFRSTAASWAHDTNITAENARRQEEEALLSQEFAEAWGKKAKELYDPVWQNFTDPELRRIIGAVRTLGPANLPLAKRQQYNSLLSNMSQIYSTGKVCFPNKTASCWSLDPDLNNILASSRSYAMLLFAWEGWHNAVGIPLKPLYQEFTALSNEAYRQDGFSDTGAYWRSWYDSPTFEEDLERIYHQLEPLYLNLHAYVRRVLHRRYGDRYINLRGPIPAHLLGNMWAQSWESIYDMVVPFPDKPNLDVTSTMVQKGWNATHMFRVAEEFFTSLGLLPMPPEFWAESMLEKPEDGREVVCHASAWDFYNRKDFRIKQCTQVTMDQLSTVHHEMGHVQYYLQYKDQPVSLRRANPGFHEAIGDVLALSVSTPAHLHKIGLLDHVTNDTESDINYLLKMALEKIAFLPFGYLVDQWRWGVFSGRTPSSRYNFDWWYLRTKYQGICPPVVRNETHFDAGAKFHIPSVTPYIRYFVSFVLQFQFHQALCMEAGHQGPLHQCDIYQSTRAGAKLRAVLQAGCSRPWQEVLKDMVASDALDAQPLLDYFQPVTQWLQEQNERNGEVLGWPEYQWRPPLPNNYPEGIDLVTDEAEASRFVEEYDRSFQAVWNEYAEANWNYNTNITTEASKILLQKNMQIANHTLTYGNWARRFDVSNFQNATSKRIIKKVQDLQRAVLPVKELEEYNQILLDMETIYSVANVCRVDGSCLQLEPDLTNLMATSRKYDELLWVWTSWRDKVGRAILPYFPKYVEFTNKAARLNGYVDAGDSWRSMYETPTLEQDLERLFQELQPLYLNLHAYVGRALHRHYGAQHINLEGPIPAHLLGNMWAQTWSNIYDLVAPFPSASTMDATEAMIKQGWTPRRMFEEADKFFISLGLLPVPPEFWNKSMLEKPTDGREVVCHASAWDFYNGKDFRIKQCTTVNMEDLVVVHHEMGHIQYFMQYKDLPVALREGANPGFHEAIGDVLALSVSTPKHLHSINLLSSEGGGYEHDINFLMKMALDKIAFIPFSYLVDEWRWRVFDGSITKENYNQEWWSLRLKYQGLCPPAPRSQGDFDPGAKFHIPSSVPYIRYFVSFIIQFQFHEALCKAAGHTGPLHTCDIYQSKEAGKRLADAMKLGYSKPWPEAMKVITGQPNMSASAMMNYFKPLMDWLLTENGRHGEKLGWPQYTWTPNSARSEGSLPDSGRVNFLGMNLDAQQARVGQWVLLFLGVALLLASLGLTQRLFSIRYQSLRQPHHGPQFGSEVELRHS

Neutrophil elastase = target: T2, Neutrophil elastase (Homo sapiens, UniProt P08246); format: tissue-based;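 also: inhibition of neutrophil elastase enzyme activity, measured with a p-nitroanilide-linked peptide substrate; in other assays of this panel Not Active means under 50% inhibition at 10 µM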
T2 sequence (P08246 whole entry): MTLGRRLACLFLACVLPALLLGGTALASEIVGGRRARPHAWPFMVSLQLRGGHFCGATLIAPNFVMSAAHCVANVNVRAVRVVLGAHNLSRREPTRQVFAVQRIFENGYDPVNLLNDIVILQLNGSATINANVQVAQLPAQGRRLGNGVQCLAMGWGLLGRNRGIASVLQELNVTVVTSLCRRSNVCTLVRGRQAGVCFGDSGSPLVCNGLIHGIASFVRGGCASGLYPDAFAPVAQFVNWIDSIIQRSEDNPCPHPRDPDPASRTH

Sequence of Beta-3 adrenergic receptor (P13945 whole entry): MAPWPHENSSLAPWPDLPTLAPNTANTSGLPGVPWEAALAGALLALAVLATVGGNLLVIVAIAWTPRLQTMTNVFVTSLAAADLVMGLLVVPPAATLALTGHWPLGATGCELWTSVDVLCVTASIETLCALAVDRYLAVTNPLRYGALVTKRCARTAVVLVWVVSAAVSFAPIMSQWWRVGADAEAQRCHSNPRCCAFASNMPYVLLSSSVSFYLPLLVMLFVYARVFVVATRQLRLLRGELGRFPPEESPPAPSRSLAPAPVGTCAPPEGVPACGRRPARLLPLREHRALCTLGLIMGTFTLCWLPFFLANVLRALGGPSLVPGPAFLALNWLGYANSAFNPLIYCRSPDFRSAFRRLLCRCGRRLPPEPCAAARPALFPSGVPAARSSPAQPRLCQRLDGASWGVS
Sequence of Sodium-dependent noradrenaline transporter (P23975 whole entry): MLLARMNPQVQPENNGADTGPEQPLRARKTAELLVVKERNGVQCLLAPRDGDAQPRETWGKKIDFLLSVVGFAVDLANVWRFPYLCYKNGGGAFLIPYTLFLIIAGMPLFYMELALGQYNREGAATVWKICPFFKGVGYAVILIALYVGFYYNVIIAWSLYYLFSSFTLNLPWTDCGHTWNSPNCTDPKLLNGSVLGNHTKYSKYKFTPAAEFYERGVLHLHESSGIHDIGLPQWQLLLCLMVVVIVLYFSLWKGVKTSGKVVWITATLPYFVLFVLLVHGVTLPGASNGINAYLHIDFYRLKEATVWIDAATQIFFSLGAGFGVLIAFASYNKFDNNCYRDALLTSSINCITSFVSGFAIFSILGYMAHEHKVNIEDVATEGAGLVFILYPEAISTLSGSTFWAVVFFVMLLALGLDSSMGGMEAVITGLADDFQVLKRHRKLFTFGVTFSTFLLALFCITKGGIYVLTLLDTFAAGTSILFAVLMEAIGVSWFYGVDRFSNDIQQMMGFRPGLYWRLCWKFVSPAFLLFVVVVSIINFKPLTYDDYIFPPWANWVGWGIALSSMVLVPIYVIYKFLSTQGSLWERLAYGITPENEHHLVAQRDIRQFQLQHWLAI

Molecule | IC50 ([1]; hek293) | IC50 ([2]; mdck) | IC50 [3] | Ki [3] | IC50 [4] | Ki [4] | IC50 [5] | Ki [5] | IC50 [6] | IC50 (Neutrophil elastase) | IC50 ([1]; read-out: IC50) [µM] | Ki ([1]; read-out: Ki) [µM] | IC50 ([2]; read-out: IC50) [µM] | Ki ([2]; read-out: Ki) [µM] | Ki ([1]; hek293) | Ki ([2]; mdck) | Ki [6] | Ki (Neutrophil elastase)
CC1Cc2ccccc2N1NC(=O)c1ccc(Cl)c(S(N)(=O)=O)c1 (stereo unspecified) [INDAPAMIDE] | Not Active | Not Active | Not Active | Not Active | Not Active | Not Active | Not Active | Not Active | Not Active | Not Active |  |  |  |  |  |  |  | 
Cc1ccc(-c2cc(C(F)(F)F)nn2-c2ccc(S(N)(=O)=O)cc2)cc1 [CELECOXIB] |  |  | Not Active | Not Active | Not Active | Not Active | Not Active | Not Active | Not Active | Not Active | 16.1 | 12.1 | 7.31 | 7.25 |  |  |  | 
CCCCc1nc(Cl)c(CO)n1Cc1ccc(-c2ccccc2-c2nnn[nH]2)cc1 [LOSARTAN] | Not Active | Not Active | Not Active | Not Active | Not Active | Not Active | Not Active | Not Active | Not Active | Not Active |  |  |  |  |  |  |  | 
CC(NC(C)(C)C)C(=O)c1cccc(Cl)c1 (stereo unspecified) [BUPROPION] | Not Active | Not Active | Not Active | Not Active | Not Active | Not Active | Not Active | Not Active | Not Active | Not Active |  |  |  |  |  |  |  | 
COc1cc2c3cc1Oc1cc(ccc1O)C[C@@H]1c4c(cc(OC)c(O)c4Oc4ccc(cc4)C[C@@H]3N(C)CC2)CC[N+]1(C)C.[Cl-] | Not Active | Not Active | Not Active | Not Active | Not Active | Not Active | Not Active | Not Active | Not Active | Not Active |  |  |  |  |  |  |  | 
CCC(C)n1ncn(-c2ccc(N3CCN(c4ccc(OCC5COC(Cn6cncn6)(c6ccc(Cl)cc6Cl)O5)cc4)CC3)cc2)c1=O (stereo unspecified) [ITRACONAZOLE] | Not Active | Not Active | Not Active | Not Active | Not Active | Not Active | Not Active | Not Active | Not Active | Not Active |  |  |  |  |  |  |  | 
CADMIUM ACETATE | Not Active | Not Active | Not Active | Not Active | Not Active | Not Active | Not Active | Not Active | Not Active | Not Active |  |  |  |  | Not Active | Not Active | Not Active | Not Active
C[C@H]1O[C@@H](O[C@H]2[C@@H](O)C[C@H](O[C@H]3[C@@H](O)C[C@H](O[C@H]4CC[C@@]5(C)[C@H](CC[C@@H]6[C@@H]5C[C@@H](O)[C@]5(C)[C@@H](C7=CC(=O)OC7)CC[C@]65O)C4)O[C@@H]3C)O[C@@H]2C)C[C@H](O)[C@@H]1O [DIGOXIN] | Not Active | Not Active | Not Active | Not Active | Not Active | Not Active | Not Active | Not Active | Not Active | Not Active |  |  |  |  |  |  |  | 
Cc1c2oc3c(C)ccc(C(=O)N[C@@H]4C(=O)N[C@H](C(C)C)C(=O)N5CCC[C@H]5C(=O)N(C)CC(=O)N(C)[C@@H](C(C)C)C(=O)O[C@@H]4C)c3nc-2c(C(=O)N[C@@H]2C(=O)N[C@H](C(C)C)C(=O)N3CCC[C@H]3C(=O)N(C)CC(=O)N(C)[C@@H](C(C)C)C(=O)O[C@@H]2C)c(N)c1=O [DACTINOMYCIN] (I: T[dV]P[Sar][NMeV] / II: T[dV]P[Sar][NMeV]; ester I:1-I:C, II:1-II:C; linker I:N-II:N via Actinocin(1to9)) | Not Active | Not Active | Not Active | Not Active | Not Active | Not Active | Not Active | Not Active | Not Active | Not Active |  |  |  |  |  |  |  | 
C=C(C)C1(O)OC(=O)C=C1OC (stereo unspecified) [PENICILLIC ACID] | Not Active | Not Active | Not Active | Not Active | Not Active | Not Active | Not Active | Not Active | Not Active | Not Active |  |  |  |  |  |  |  | 
CN(Cc1ccc(C(C)(C)C)cc1)Cc1cccc2ccccc12 [BUTENAFINE] | Not Active |  | Not Active | Not Active | Not Active | Not Active | Not Active | Not Active | Not Active | Not Active |  |  | 3.91 | 3.88 |  |  |  | 
NC(=O)N1c2ccccc2CCc2ccccc21 | Not Active | Not Active | Not Active | Not Active | Not Active | Not Active | Not Active | Not Active | Not Active | Not Active |  |  |  |  |  |  |  | 
Cc1onc(-c2ccccc2Cl)c1C(=O)N[C@@H]1C(=O)N2[C@@H]1SC(C)(C)[C@@H]2C(=O)O [CLOXACILLIN] | Not Active | Not Active | Not Active | Not Active | Not Active | Not Active | Not Active | Not Active | Not Active | Not Active |  |  |  |  |  |  |  | 
COc1ccc(C[C@H]2NC[C@H](O)[C@H]2OC(C)=O)cc1 [ANISOMYCIN] | Not Active | Not Active | Not Active | Not Active | Not Active | Not Active | Not Active | Not Active | Not Active | Not Active |  |  |  |  | Not Active | Not Active | Not Active | Not Active
CCn1cc(C(=O)O)c(=O)c2cc(F)c(N3CCNCC3)cc21 [NORFLOXACIN] | Not Active | Not Active | Not Active | Not Active | Not Active | Not Active | Not Active | Not Active | Not Active | Not Active |  |  |  |  |  |  |  | 
CCC1(c2ccc(N)cc2)CCC(=O)NC1=O (stereo unspecified) [AMINOGLUTETHIMIDE] | Not Active | Not Active | Not Active | Not Active | Not Active | Not Active | Not Active | Not Active | Not Active | Not Active |  |  |  |  |  |  |  | 
Cc1ccc(/N=C/N(C)/C=N/c2ccc(C)cc2C)c(C)c1 [AMITRAZ] | Not Active | Not Active | Not Active | Not Active | Not Active | Not Active | Not Active | Not Active | Not Active | Not Active |  |  |  |  |  |  |  | 
Cc1ccc(N(CC2=NCCN2)c2cccc(O)c2)cc1 [PHENTOLAMINE] | Not Active | Not Active | Not Active | Not Active | Not Active | Not Active | Not Active | Not Active | Not Active | Not Active |  |  |  |  |  |  |  | 
CNNCc1ccc(C(=O)NC(C)C)cc1 [PROCARBAZINE] | Not Active | Not Active | Not Active | Not Active | Not Active | Not Active | Not Active | Not Active | Not Active | Not Active |  |  |  |  |  |  |  | 
